In patent US7892789B2, “Method of increasing cell permeability to trehalose by recombinantly producing a trehalose transporter” (priority 2007, dated 2011):
Where two headings read alike, the source gives them in different places.

Key:
hGLUT1 = target: T1, hGLUT1 (Homo sapiens, UniProt P11166); test: Sugar uptake assay in Xenopus oocytes expressing hGLUT1; assay type: cell-based; conditions: 105 mM of sugar, 3 h
T1 construct: ORF of hGLUT1 cDNA was obtained by digestion of pSPMM1 with BamH I; expressed in transfected cells; host or cells: Xenopus laevis oocytes injected with cRNA
T1 sequence (P11166 1-492): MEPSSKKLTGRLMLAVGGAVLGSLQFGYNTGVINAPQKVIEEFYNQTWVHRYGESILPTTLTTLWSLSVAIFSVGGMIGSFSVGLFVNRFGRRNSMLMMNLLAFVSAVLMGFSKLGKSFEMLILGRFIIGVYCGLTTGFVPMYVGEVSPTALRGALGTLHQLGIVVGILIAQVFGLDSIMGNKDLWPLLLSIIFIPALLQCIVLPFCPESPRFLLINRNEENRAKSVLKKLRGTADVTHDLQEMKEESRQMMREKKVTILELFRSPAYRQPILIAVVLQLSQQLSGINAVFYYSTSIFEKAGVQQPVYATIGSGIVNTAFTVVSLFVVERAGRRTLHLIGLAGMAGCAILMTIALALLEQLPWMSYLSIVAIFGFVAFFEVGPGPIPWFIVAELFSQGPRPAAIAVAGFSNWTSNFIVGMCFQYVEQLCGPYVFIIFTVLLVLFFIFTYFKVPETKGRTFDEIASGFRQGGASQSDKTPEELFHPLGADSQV
Excerpt: (§1) The capped RNA (cRNA) expression vector pTRET1-XbG-ev1 series was constructed as follows: ORF of either Tret1, DmTret1, AmTret1, AgTret1 or BmTret1 cDNA was amplified with PCR using specific primers containing Bgl II site at the 5′-end on each primer, respectively. The PCR products were digested with the restriction enzymes, and cloned into the site of Bgl II in pXbG-ev1 (Preston, G. M., et al. (1992) Science 256, 385-387). ORF of hGLUT1 cDNA was obtained by digestion of pSPMM1 with BamH I, and then subcloned into the site of Bgl II in pXbG-2. Template DNAs for cRNA synthesis were amplified from the corresponding cRNA expression vectors with a high fidelity DNA polymerase, KOD—Plus—, (TOYOBO). The cRNAs were synthesized with mMESSAGE mMACHINE T7 Kit (Ambion), and then purified with RNeasy MiniElute Cleanup kit (Qiagen).
(§2) All uptake assays for zero-trans trehalose and/or other sugars were performed using Xenopus oocytes expressing TRET1 at 15° C. in MBS containing appropriate concentrations of sugars. Sugar concentrations were determined using HPLC (Watanabe, M., et al. (2002) J Exp Biol 205, 2799-2802). All assays were carried out in triplicate.
(§3) Xenopus oocytes expressing either TRET1 or hGLUT1 were incubated in 105 mM of various sugars for 3 h. Tre: trehalose; Mal: maltose; Suc: sucrose; Lac: lactose; MAG: methyl-a-glucopyranoside; and 2-DOG: 2-deoxy-glucose (FIG. 3B).

TRET1 = target: T2, TRET1 (Polypedilum vanderplanki, UniProt A5LGM7); assay type: cell-based; conditions: for effect on the transport activity of TRET1: 105 mM trehalose, various concentrations of ionophore/uncoupler
T2 construct: ORF of either Tret1, DmTret1, AmTret1, AgTret1 or BmTret1 cDNA was amplified with PCR; expressed in transfected cells; host or cells: Xenopus laevis oocytes injected with cRNA
T2 sequence (A5LGM7 1-504): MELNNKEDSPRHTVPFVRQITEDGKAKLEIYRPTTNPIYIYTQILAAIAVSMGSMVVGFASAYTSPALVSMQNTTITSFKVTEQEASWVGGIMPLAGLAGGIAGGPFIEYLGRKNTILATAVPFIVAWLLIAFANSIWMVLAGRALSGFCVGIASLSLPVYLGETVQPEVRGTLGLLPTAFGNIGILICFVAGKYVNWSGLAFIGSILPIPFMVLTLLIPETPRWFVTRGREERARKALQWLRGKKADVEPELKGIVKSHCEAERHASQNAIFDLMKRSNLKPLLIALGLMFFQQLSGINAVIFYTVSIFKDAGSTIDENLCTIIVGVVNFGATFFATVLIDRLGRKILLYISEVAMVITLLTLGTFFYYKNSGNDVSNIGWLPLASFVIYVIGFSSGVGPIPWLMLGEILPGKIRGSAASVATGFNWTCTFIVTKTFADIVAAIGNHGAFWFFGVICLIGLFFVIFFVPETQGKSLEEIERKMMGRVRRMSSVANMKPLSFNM
Excerpt: as §1
Stage V or VI oocytes were extirpated from X. laevis females, and digested ovarian lobes with 0.2% (w/v) collagenase, type II (Sigma-Aldrich) in Ca^2+-free modified Barth's saline (MBS; 88.0 mM NaCl, 1.0 mM KCl, 2.4 mM NaHCO3, 15.0 mM Tris-Cl, 0.82 mM MgSO4, […] penicillin and streptomycin, pH7.6) at 15° C. for 3 h. The oocytes were microinjected with 40 nl of either 1 ng/nl of the TRET1::AcGFP1 or AcGFP1 cRNA, or nuclease-free water (Invitrogen) as a negative control. In order to express TRET1, the oocytes were incubated in MBS (containing 0.41 mM CaCl2) for 3-4 days after injection at 15° C. Fluorescence images of the oocytes injected with the cRNA were observed and analyzed with a fluorescence microscope BZ-8000 (KEYENCE).
as §2, §3
In General, transporters contain two sub-classes: facilitated transporters and secondary active transporters. Activities of secondary active transporters are dependent on the electrochemical membrane potential resulting from the distribution of ions such as H^+. For example, proton-dependent MAL11/AGT1 can act only under acidic extracellular conditions (Stambuk, B. U., et al. (1996) Eur J Biochem 237, 876-881). On the other hand, facilitated transporters function independently of the electrochemical membrane potential. Xenopus oocytes expressing TRET1 were incubated in 105 mM trehalose at pH 4.2 and 7.6 for 3 h.
Xenopus oocytes expressing TRET1 were incubated in 105 mM trehalose with either control buffer (Mock; 0.1% acetone), or buffer containing various concentrations of nigericin (Na^+, K^+-ionophore), valinomycin (K^+-ionophore) or CCCP (H^+-ionophore, uncoupler) for 3 h.
In general, facilitated transporters enable their substrates to flow across membranes down concentration gradients. Xenopus oocytes expressing TRET1 were first incubated in 105 mM trehalose for 3 h, and then transferred into trehalose-free buffer and trehalose content was examined over time.
Xenopus oocytes expressing TRET1 were incubated in various concentrations of trehalose for 15 min. Uptake data were fitted to the Michaelis-Menten and Eadie-Hofstee (inset of FIG. 9) equations.

[1] = 105 mM of sugar, 3 h, Xenopus oocytes

SMILES | effect on the transport activity of TRET1 (TRET1; 3 h) | transport of sugar by TRET1 (substrate selectivity) (TRET1; [1]) | also measured
O=CC[C@@H](O)[C@H](O)[C@H](O)CO [2-DOG, 2-deoxy-glucose] |  |  | transport of sugar by Glut1 gene product (substrate selectivity) (hGLUT1): transported; transport of sugar by TRET1 (substrate selectivity) (TRET1): transported at a much lower rate
N#CC(C#N)=NNc1cccc(Cl)c1 [CCCP, carbonylcyanide m-chlorophenylhydrazone] | did not significantly affect |  | 
COC1OC(CO)C(O)C(O)C1O (stereo not drawn) [MAG, methyl-a-glucopyranoside] |  | transported at a much lower rate | 
OC[C@H]1O[C@H](O[C@H]2[C@H](O)[C@@H](O)[C@H](O)O[C@@H]2CO)[C@H](O)[C@@H](O)[C@@H]1O [Maltose, maltose] |  | not transported | 
OC[C@H]1O[C@@H](O[C@H]2[C@H](O)[C@@H](O)C(O)O[C@@H]2CO)[C@H](O)[C@@H](O)[C@H]1O (stereo partly drawn) [lactose, 4-O-b-D-galactopyranosyl-D-glucose] |  | not transported | 
CO[C@@H]1C[C@@H](C[C@H]2CC[C@H](C)[C@H]([C@@H](C)C(=O)O)O2)O[C@]2(O[C@](C)([C@H]3CC[C@@](C)([C@@H]4O[C@@H]([C@H]5O[C@@](O)(CO)[C@H](C)C[C@@H]5C)C[C@@H]4C)O3)C[C@H]2C)[C@@H]1C [nigericin] | did not significantly affect |  | 
OC[C@H]1O[C@@](CO)(O[C@H]2O[C@H](CO)[C@@H](O)[C@H](O)[C@H]2O)[C@@H](O)[C@@H]1O [sucrose] |  | not transported | 
CC(C)[C@@H]1NC(=O)[C@H](C)OC(=O)[C@@H](C(C)C)NC(=O)[C@@H](C(C)C)OC(=O)[C@H](C(C)C)NC(=O)[C@H](C)OC(=O)[C@@H](C(C)C)NC(=O)[C@@H](C(C)C)OC(=O)[C@H](C(C)C)NC(=O)[C@H](C)OC(=O)[C@@H](C(C)C)NC(=O)[C@@H](C(C)C)OC1=O [valinomycin] | did not significantly affect |  | 
